Data as given in ChEMBL document CHEMBL5465560, “Selectivity Literature for EUbOPEN Chemogenomic Library” (2024).
Values belong to the compound of their own block, whether it stands above or below them.

Legend:
[1] = target: Calcium/calmodulin-dependent protein kinase type 1G (Homo sapiens) (UniProt Q96NX5); assay: Selectivity interaction (KinomeScan (DiscoverX)) EUB0000666a CAMK1G; conditions: at 10 µM
[2] = tested on: Tyrosine-protein kinase ABL1 (Homo sapiens), P00519 [Q252H]; assay: Selectivity interaction (KinomeScan (DiscoverX)) EUB0000607a ABL1; conditions: at 10 µM
[3] = target: G protein-coupled receptor kinase 4 (Homo sapiens) (UniProt P32298); assay: Selectivity interaction (KinomeScan (DiscoverX)) EUB0000607a GRK4; conditions: at 10 µM
[4] = target: T1, Serine/threonine-protein kinase LATS1 (Homo sapiens) (UniProt O95835); conditions: at 10 µM
T1 sequence (whole entry): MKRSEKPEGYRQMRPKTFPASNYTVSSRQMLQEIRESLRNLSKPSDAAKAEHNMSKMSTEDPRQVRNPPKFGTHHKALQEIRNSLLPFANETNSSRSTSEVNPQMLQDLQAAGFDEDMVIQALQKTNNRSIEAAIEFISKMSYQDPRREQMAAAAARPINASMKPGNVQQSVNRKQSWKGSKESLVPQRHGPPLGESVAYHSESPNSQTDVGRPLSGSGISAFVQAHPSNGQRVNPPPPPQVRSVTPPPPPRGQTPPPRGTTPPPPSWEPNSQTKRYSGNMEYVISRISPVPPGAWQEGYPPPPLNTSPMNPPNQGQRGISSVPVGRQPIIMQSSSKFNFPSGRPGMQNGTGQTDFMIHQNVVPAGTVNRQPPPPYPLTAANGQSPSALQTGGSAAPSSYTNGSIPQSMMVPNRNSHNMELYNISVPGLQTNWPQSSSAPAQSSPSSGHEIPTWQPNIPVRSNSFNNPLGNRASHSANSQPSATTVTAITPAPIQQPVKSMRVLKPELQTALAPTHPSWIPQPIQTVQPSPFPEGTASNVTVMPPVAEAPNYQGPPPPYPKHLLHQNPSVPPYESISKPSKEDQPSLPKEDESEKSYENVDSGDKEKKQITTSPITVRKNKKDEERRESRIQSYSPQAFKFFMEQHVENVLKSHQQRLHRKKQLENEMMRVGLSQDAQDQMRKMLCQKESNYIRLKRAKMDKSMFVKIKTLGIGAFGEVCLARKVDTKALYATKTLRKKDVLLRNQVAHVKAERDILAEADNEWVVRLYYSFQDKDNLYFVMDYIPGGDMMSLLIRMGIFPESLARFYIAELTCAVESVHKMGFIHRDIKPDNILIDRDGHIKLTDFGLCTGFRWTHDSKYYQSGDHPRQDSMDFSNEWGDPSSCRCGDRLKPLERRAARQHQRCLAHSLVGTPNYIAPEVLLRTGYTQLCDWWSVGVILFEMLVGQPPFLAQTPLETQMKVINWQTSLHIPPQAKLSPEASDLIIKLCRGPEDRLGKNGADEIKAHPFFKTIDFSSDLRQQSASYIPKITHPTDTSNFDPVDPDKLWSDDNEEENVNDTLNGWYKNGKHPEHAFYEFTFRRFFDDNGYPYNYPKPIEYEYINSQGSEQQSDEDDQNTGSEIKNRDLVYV

[5] = target: T2, Serine/threonine-protein kinase TNNI3K (Homo sapiens) (UniProt Q59H18); assay: Selectivity interaction (KinomeScan (DiscoverX)) EUB0000595a TNNI3K; conditions: at 10 µM
T2 sequence (whole entry): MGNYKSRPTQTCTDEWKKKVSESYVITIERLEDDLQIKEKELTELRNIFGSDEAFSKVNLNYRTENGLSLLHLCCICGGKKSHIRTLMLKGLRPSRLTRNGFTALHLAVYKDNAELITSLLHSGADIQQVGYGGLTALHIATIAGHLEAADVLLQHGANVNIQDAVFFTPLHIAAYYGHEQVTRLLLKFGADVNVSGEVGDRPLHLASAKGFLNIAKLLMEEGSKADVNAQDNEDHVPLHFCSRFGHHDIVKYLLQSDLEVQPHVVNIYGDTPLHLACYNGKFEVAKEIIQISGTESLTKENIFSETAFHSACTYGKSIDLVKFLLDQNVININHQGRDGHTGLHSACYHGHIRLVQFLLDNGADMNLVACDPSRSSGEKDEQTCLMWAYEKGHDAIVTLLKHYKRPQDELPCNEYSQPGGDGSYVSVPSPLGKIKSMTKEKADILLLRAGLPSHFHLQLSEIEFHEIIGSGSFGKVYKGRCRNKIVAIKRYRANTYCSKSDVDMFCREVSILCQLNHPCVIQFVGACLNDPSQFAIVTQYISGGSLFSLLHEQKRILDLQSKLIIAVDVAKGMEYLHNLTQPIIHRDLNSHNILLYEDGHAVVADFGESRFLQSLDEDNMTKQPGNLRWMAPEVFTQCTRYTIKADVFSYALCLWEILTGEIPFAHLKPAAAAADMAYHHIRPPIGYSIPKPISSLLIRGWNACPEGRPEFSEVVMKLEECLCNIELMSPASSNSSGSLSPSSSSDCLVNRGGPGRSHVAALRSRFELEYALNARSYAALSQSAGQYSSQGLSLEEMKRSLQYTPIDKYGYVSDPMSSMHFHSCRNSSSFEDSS

[6] = target: T3, Cytoplasmic tyrosine-protein kinase BMX (Homo sapiens) (UniProt P51813); assay: Selectivity interaction (Millipore kinase profiler) EUB0000124b BMX; conditions: at 10 µM
T3 sequence (whole entry): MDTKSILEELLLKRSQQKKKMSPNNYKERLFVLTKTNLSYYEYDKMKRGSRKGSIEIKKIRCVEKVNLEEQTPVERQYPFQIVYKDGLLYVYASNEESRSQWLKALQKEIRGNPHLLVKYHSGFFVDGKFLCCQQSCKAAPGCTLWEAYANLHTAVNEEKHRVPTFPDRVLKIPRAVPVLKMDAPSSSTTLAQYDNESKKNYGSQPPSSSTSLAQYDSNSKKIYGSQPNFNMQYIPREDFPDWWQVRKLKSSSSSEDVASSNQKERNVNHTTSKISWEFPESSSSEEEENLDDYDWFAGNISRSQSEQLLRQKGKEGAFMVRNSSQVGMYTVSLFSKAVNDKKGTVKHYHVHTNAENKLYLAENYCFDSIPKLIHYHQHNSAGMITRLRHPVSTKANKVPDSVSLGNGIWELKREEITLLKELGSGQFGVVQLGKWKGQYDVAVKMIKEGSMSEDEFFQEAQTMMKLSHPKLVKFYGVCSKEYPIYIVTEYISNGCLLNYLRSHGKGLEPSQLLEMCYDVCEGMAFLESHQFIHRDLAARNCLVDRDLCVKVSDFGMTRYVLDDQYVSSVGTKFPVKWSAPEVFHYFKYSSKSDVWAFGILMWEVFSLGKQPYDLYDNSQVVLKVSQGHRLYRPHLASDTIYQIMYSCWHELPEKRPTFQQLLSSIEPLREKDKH

[7] = target: Cyclin-dependent kinase 3 (Homo sapiens) (UniProt Q00526); assay: Selectivity interaction (Ambit KINOMEscan and KiNATiv profiling in Jurkat cells) EUB0000090b CDK3; type: cell-based; conditions: at 1 µM
[8] = target: Mitogen-activated protein kinase 14 (Homo sapiens, UniProt Q16539); assay: Selectivity interaction (KinomeScan (DiscoverX)) EUB0000229b MAPK14; conditions: at 10 µM
Chain of Mitogen-activated protein kinase 14 (Q16539 whole entry): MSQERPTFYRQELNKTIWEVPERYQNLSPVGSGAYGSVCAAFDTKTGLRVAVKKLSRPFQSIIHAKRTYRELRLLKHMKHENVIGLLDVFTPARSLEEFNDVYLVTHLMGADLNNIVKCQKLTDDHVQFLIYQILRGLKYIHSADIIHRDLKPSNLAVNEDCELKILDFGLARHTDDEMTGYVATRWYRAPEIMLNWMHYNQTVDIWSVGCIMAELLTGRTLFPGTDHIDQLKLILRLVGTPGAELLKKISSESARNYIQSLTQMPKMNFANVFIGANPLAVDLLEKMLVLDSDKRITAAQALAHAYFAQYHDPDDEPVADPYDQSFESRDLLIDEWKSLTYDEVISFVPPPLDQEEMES

Chain of Calcium/calmodulin-dependent protein kinase type 1G (Homo sapiens) (Q96NX5 whole entry): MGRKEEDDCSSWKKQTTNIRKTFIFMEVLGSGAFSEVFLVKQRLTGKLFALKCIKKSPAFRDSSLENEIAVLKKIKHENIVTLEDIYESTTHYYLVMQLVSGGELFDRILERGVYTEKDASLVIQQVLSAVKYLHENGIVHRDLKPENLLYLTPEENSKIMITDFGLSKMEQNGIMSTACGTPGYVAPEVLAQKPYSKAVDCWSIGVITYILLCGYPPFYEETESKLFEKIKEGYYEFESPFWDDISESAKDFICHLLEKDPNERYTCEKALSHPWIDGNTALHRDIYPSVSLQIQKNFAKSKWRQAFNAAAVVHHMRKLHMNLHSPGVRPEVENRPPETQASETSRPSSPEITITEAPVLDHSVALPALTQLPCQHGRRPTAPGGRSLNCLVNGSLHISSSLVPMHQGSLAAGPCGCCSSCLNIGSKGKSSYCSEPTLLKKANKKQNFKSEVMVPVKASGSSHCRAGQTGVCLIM
Chain of G protein-coupled receptor kinase 4 (Homo sapiens) (P32298 whole entry, looked up): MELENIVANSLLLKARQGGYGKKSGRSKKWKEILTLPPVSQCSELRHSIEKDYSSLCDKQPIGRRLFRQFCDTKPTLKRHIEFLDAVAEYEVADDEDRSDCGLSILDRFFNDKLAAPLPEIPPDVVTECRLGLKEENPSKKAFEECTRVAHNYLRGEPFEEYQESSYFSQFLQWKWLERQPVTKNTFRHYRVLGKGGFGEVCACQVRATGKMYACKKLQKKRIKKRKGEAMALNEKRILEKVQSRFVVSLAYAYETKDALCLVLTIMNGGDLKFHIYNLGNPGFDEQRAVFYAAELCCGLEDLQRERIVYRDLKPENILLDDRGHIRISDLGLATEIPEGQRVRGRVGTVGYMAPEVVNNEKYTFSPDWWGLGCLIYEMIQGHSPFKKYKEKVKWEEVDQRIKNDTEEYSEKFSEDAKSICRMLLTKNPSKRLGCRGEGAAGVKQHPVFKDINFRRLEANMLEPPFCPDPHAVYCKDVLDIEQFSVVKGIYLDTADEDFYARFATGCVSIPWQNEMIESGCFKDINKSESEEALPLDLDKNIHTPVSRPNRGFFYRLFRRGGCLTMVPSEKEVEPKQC
Chain of Cyclin-dependent kinase 3 (Homo sapiens) (Q00526 whole entry, looked up): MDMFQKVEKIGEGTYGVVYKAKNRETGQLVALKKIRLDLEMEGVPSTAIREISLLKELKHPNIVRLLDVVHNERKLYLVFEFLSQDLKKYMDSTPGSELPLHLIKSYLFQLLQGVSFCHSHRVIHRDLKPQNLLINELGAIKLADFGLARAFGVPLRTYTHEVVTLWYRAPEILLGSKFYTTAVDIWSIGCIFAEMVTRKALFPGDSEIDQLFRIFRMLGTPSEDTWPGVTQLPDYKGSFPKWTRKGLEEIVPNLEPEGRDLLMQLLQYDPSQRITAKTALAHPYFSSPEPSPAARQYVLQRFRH

Structure (SMILES): O=C(NOC[C@H](O)CO)c1ccc(F)c(F)c1Nc1ccc(I)cc1F
% of control [1]: 100%

Structure (SMILES): CNC(=O)Nc1ccc(-c2nc(N3CC4CCC(C3)O4)c3cnn(C4CCC5(CC4)OCCO5)c3n2)cc1
% of control [2]: 100%
% of control [3]: 100%

% of control [4]: 100%
Structure (SMILES): CCN(CC)CCCCNc1ncc2cc(-c3cc(OC)cc(OC)c3)c(NC(=O)NC(C)(C)C)nc2n1

Structure (SMILES): COCC(=O)NC/C=C/c1ccc2ncnc(Nc3ccc(Oc4ccc(C)nc4)c(C)c3)c2c1 [CP-724714]
% of control [5]: 100%

% of control [6]: 93%
Structure (SMILES): CC(=O)Nc1cccc(-n2c(=O)n(C3CC3)c(=O)c3c(Nc4ccc(I)cc4F)n(C)c(=O)c(C)c32)c1

Structure (SMILES): CN(C)C/C=C/C(=O)Nc1ccc(C(=O)N2CCCC(Nc3ncc(Cl)c(-c4c[nH]c5ccccc45)n3)C2)cc1 (stereo not drawn)
% of control [7]: 97%

Structure (SMILES): COc1cc(N(C)c2ccnc3ccc(C(F)(F)F)cc23)cc(OC)c1OC
% binding [8]: 81%
